# Source: paper PMC5392334, “Discovery and characterization of a novel irreversible EGFR mutants selective and potent kinase inhibitor CHMFL-EGFR-26 with a distinct binding mode” (Oncotarget, 2017)
# Experiments:
# TEC = target: T1, TEC (Homo sapiens, UniProt P42680); test: KinomeScan; format: binding; settings: read-out: % control
# T1 construct: purchased DiscoveRx KINOMEscan
# WEE2 = target: T2, WEE2 (Homo sapiens, UniProt P0C1S8); test: KinomeScan; format: binding; settings: read-out: % control
# T2 construct: purchased DiscoveRx KINOMEscan
# MAP3K1 = target: T3, MAP3K1 (Homo sapiens, UniProt Q13233); test: KinomeScan; format: binding; settings: read-out: % control
# T3 construct: purchased DiscoveRx KINOMEscan
# IKK-epsilon = target: T4, IKK-epsilon (Homo sapiens, UniProt Q14164); test: KinomeScan; format: binding; settings: read-out: % control
# T4 construct: purchased DiscoveRx KINOMEscan
# MEK2 = target: T5, MEK2 (Homo sapiens, UniProt P36507); test: KinomeScan; format: binding; settings: read-out: % control
# T5 construct: purchased DiscoveRx KINOMEscan
# MYO3A = target: T6, MYO3A (Homo sapiens, UniProt Q8NEV4); test: KinomeScan; format: binding; settings: read-out: % control
# T6 construct: purchased DiscoveRx KINOMEscan
# AKT3 = target: T7, AKT3 (Homo sapiens, UniProt Q9Y243); test: KinomeScan; format: binding; settings: read-out: % control
# T7 construct: purchased DiscoveRx KINOMEscan
# [1] = target: T8, JAK1(JH2domain-pseudokinase) (Homo sapiens, UniProt P23458); test: KinomeScan; format: binding; settings: read-out: % control
# T8 construct: JAK1(JH2domain-pseudokinase); purchased DiscoveRx KINOMEscan
# SBK1 = target: T9, SBK1 (Homo sapiens, UniProt Q52WX2); test: KinomeScan; format: binding; settings: read-out: % control
# T9 construct: purchased DiscoveRx KINOMEscan
# DAPK3 = target: T10, DAPK3 (Homo sapiens, UniProt O43293); test: KinomeScan; format: binding; settings: read-out: % control
# T10 construct: purchased DiscoveRx KINOMEscan
# DYRK1A = target: T11, DYRK1A (Homo sapiens, UniProt Q13627); test: KinomeScan; format: binding; settings: read-out: % control
# T11 construct: purchased DiscoveRx KINOMEscan
# RAF1 = target: T12, RAF1 (Homo sapiens, UniProt P04049); test: KinomeScan; format: binding; settings: read-out: % control
# T12 construct: purchased DiscoveRx KINOMEscan
# WNK3 = target: T13, WNK3 (Homo sapiens, UniProt Q9BYP7); test: KinomeScan; format: binding; settings: read-out: % control
# T13 construct: purchased DiscoveRx KINOMEscan
# JNK3 = target: T14, JNK3 (Homo sapiens, UniProt P53779); test: KinomeScan; format: binding; settings: read-out: % control
# T14 construct: purchased DiscoveRx KINOMEscan
# ICK = target: T15, ICK (Homo sapiens, UniProt Q9UPZ9); test: KinomeScan; format: binding; settings: read-out: % control
# T15 construct: purchased DiscoveRx KINOMEscan
# TNIK = target: T16, TNIK (Homo sapiens, UniProt Q9UKE5); test: KinomeScan; format: binding; settings: read-out: % control
# T16 construct: purchased DiscoveRx KINOMEscan
# EGFR(L861Q) = target: T17, EGFR(L861Q) (Homo sapiens, UniProt P00533, L861Q); test: KinomeScan; format: binding; settings: read-out: % control
# T17 construct: purchased DiscoveRx KINOMEscan
# p38-delta = target: T18, p38-delta (Homo sapiens, UniProt O15264); test: KinomeScan; format: binding; settings: read-out: % control
# T18 construct: purchased DiscoveRx KINOMEscan
# MAP4K5 = target: T19, MAP4K5 (Homo sapiens, UniProt Q9Y4K4); test: KinomeScan; format: binding; settings: read-out: % control
# T19 construct: purchased DiscoveRx KINOMEscan
# RIOK2 = target: T20, RIOK2 (Homo sapiens, UniProt Q9BVS4); test: KinomeScan; format: binding; settings: read-out: % control
# T20 construct: purchased DiscoveRx KINOMEscan
# CDKL2 = target: T21, CDKL2 (Homo sapiens, UniProt Q92772); test: KinomeScan; format: binding; settings: read-out: % control
# T21 construct: purchased DiscoveRx KINOMEscan
# MAPKAPK2 = target: T22, MAPKAPK2 (Homo sapiens, UniProt P49137); test: KinomeScan; format: binding; settings: read-out: % control
# T22 construct: purchased DiscoveRx KINOMEscan
# GSK3A = target: T23, GSK3A (Homo sapiens, UniProt P49840); test: KinomeScan; format: binding; settings: read-out: % control
# T23 construct: purchased DiscoveRx KINOMEscan
# TNK1 = target: T24, TNK1 (Homo sapiens, UniProt Q13470); test: KinomeScan; format: binding; settings: read-out: % control
# T24 construct: purchased DiscoveRx KINOMEscan
# ERK5 = target: T25, ERK5 (Homo sapiens, UniProt Q13164); test: KinomeScan; format: binding; settings: read-out: % control
# T25 construct: purchased DiscoveRx KINOMEscan
# SGK = target: T26, SGK (Homo sapiens, UniProt O00141); test: KinomeScan; format: binding; settings: read-out: % control
# T26 construct: purchased DiscoveRx KINOMEscan
# MINK = target: T27, MINK (Homo sapiens, UniProt Q8N4C8); test: KinomeScan; format: binding; settings: read-out: % control
# T27 construct: purchased DiscoveRx KINOMEscan
# [2] = test system: EGFR Y1068 phosphorylation in BaF3-TEL-EGFR cells; test: EGFR Y1068 auto-phosphorylation in transformed BaF3 cells; settings: Mus musculus, BaF3, 4 h, read-out: EC50, phosphorylation of EGFR Y1068
# EIF2AK1 = target: T28, EIF2AK1 (Homo sapiens, UniProt Q9BQI3); test: KinomeScan; format: binding; settings: read-out: % control
# T28 construct: purchased DiscoveRx KINOMEscan
# ROS1 = target: T29, ROS1 (Homo sapiens, UniProt P08922); test: KinomeScan; format: binding; settings: read-out: % control
# T29 construct: purchased DiscoveRx KINOMEscan
# PIK3C2G = target: T30, PIK3C2G (Homo sapiens, UniProt O75747); test: KinomeScan; format: binding; settings: read-out: % control
# T30 construct: purchased DiscoveRx KINOMEscan
# YSK4 = target: T31, YSK4 (Homo sapiens, UniProt Q56UN5); test: KinomeScan; format: binding; settings: read-out: % control
# T31 construct: purchased DiscoveRx KINOMEscan
# GRK7 = target: T32, GRK7 (Homo sapiens, UniProt Q8WTQ7); test: KinomeScan; format: binding; settings: read-out: % control
# T32 construct: purchased DiscoveRx KINOMEscan
# KIT(A829P) = target: T33, KIT(A829P) (Homo sapiens, UniProt P10721, A829P); test: KinomeScan; format: binding; settings: read-out: % control
# T33 construct: purchased DiscoveRx KINOMEscan
# EPHB6 = target: T34, EPHB6 (Homo sapiens, UniProt O15197); test: KinomeScan; format: binding; settings: read-out: % control
# T34 construct: purchased DiscoveRx KINOMEscan
# PIM2 = target: T35, PIM2 (Homo sapiens, UniProt Q9P1W9); test: KinomeScan; format: binding; settings: read-out: % control
# T35 construct: purchased DiscoveRx KINOMEscan
# EGFR(L747-T751del,Sins) = test: KinomeScan; format: binding; settings: 1μM
# CSF1R-autoinhibited = target: T36, CSF1R-autoinhibited (Homo sapiens, UniProt P07333); test: KinomeScan; format: binding; settings: read-out: % control
# T36 construct: purchased DiscoveRx KINOMEscan
# ERK1 = target: T37, ERK1 (Homo sapiens, UniProt P27361); test: KinomeScan; format: binding; settings: read-out: % control
# T37 construct: purchased DiscoveRx KINOMEscan
# SIK2 = target: T38, SIK2 (Homo sapiens, UniProt Q9H0K1); test: KinomeScan; format: binding; settings: read-out: % control
# T38 construct: purchased DiscoveRx KINOMEscan
# ACVR2A = target: T39, ACVR2A (Homo sapiens, UniProt P27037); test: KinomeScan; format: binding; settings: read-out: % control
# T39 construct: purchased DiscoveRx KINOMEscan
# MARK4 = target: T40, MARK4 (Homo sapiens, UniProt Q96L34); test: KinomeScan; format: binding; settings: read-out: % control
# T40 construct: purchased DiscoveRx KINOMEscan
# NDR1 = target: T41, NDR1 (Homo sapiens, UniProt Q15208); test: KinomeScan; format: binding; settings: read-out: % control
# T41 construct: purchased DiscoveRx KINOMEscan
# T18 sequence (O15264 whole entry): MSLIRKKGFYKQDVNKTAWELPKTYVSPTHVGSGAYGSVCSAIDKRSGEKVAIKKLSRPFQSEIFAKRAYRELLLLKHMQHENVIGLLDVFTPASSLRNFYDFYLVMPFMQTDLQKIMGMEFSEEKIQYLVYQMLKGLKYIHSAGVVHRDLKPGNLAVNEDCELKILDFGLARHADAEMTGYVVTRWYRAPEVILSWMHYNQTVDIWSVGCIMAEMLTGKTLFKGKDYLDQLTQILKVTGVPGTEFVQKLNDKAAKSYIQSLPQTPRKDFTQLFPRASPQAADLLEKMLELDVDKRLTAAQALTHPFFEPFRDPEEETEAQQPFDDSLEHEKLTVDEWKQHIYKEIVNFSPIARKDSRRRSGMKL
# T20 sequence (Q9BVS4 whole entry): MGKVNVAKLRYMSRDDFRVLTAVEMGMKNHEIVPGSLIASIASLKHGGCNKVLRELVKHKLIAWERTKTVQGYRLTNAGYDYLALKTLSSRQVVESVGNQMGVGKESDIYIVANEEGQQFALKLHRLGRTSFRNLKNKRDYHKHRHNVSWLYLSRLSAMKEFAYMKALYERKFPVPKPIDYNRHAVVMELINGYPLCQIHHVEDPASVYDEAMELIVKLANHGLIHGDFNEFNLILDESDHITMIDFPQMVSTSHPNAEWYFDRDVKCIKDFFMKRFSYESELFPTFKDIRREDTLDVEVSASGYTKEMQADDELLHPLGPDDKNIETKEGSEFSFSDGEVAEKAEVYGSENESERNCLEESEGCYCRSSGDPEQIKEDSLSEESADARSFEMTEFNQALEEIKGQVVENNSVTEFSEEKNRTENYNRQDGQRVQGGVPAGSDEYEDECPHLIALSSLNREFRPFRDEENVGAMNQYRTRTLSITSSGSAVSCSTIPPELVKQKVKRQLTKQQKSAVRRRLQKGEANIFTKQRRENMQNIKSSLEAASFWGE
# T25 sequence (Q13164 whole entry): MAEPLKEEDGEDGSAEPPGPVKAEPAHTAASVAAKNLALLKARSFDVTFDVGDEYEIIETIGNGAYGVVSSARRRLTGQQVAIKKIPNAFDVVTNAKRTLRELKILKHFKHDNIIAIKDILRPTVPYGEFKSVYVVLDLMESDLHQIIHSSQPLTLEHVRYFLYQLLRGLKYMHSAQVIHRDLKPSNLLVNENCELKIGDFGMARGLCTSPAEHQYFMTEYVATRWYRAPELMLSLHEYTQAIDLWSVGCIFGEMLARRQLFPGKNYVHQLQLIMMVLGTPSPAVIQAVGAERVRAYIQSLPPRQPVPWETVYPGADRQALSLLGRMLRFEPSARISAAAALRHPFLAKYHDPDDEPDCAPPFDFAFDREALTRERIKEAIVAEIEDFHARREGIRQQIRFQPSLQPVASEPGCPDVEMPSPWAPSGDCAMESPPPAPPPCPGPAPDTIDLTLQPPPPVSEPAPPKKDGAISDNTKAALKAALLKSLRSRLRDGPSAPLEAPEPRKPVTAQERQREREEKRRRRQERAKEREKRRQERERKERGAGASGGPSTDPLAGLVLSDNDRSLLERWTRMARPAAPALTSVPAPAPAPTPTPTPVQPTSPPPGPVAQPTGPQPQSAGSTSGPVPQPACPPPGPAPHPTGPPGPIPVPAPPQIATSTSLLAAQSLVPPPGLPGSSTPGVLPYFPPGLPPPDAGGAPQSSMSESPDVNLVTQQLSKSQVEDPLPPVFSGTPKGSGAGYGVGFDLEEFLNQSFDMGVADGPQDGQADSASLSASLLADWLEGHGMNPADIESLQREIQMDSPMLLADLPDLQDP
# T29 sequence (P08922 28-2347): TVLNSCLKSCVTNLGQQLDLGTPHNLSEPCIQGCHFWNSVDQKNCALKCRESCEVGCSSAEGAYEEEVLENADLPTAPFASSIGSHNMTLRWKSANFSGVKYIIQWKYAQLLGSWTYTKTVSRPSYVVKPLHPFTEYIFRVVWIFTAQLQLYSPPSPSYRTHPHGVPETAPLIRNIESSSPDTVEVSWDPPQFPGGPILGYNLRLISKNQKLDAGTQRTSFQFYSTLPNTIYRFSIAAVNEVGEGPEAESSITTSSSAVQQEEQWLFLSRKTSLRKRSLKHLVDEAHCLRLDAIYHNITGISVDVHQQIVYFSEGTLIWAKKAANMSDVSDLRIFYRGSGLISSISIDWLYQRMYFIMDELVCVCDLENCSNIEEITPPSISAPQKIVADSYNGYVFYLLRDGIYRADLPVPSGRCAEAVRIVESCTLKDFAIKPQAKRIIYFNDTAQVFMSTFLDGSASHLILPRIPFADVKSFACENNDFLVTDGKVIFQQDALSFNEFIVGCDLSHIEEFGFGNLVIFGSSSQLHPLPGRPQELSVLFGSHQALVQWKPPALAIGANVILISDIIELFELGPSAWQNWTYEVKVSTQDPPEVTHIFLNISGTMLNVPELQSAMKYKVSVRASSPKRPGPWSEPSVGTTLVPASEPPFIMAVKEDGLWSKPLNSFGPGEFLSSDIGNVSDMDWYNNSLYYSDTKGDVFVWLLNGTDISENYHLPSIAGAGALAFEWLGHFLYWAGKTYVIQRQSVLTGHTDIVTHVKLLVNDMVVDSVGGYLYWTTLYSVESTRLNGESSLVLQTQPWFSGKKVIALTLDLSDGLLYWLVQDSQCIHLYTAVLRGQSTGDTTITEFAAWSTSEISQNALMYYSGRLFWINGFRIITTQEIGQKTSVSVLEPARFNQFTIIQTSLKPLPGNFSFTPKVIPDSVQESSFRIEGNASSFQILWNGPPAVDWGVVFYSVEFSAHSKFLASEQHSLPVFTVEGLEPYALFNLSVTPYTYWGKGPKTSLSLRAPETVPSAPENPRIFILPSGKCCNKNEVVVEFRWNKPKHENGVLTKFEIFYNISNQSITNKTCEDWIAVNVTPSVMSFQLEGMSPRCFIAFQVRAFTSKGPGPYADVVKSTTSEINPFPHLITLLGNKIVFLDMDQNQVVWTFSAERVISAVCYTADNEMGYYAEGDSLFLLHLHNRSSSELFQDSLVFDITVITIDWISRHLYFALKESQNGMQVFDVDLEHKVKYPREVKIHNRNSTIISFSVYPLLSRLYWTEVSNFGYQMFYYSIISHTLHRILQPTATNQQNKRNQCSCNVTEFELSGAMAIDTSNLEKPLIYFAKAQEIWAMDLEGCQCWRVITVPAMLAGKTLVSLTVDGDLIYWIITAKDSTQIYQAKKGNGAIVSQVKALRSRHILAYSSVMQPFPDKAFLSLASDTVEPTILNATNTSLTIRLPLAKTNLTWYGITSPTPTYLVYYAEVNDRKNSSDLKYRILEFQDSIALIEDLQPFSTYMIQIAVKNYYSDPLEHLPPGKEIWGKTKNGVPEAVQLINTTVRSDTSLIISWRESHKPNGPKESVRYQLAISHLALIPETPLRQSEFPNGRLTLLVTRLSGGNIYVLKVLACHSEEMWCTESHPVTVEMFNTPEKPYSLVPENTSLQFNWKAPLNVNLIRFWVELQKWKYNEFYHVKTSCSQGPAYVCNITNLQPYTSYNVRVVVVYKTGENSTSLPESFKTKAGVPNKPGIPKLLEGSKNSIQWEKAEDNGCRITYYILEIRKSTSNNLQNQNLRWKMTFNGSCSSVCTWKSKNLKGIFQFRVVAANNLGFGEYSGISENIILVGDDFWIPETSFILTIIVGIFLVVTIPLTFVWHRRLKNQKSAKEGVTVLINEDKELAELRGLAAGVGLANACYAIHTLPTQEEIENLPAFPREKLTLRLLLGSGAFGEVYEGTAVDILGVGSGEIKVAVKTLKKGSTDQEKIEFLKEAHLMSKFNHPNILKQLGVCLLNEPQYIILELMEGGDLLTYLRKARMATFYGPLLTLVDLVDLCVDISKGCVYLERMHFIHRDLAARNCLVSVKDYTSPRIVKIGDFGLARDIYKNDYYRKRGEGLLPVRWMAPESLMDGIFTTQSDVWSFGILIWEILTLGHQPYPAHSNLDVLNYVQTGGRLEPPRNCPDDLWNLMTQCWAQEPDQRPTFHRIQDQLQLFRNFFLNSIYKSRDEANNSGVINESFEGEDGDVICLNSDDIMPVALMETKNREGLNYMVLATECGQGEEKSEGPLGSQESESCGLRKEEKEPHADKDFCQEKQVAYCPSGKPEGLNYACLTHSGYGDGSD
# T2 sequence (P0C1S8 whole entry): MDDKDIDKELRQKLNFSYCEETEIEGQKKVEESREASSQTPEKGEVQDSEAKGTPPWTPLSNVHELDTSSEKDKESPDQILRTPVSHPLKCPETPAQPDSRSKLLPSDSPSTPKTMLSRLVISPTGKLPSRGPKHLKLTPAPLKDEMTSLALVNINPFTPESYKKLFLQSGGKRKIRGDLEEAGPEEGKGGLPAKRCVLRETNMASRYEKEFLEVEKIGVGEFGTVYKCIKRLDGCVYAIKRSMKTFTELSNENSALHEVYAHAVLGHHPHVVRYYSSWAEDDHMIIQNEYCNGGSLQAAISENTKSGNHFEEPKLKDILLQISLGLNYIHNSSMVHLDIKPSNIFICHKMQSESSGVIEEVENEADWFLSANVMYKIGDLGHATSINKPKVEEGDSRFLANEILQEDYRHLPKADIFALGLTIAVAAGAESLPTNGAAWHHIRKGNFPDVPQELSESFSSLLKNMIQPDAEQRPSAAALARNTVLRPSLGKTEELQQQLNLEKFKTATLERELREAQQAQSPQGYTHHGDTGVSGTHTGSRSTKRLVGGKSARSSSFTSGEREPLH
# T35 sequence (Q9P1W9 whole entry): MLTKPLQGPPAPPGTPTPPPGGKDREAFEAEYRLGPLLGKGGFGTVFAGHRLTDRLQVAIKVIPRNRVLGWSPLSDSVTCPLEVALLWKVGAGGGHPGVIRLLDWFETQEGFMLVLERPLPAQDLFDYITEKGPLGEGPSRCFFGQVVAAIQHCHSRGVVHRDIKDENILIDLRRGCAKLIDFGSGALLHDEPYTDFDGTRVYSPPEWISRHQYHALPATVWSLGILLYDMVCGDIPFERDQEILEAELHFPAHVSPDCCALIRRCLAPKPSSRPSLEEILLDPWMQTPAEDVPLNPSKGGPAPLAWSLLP
compound,measurement,setting,value
C=CC(=O)N1CCC[C@@H](n2nc(-c3ccc(OCc4cccc(C)n4)c(Cl)c3)c3c(N)ncnc32)C1 [CHMFL-EGFR-26],remaining binding at 1 µM,TEC,13%
same,remaining binding at 1 µM,WEE2,84%
same,remaining binding at 1 µM,MAP3K1,82%
same,remaining binding at 1 µM,IKK-epsilon,100%
same,remaining binding at 1 µM,MEK2,1.1%
same,remaining binding at 1 µM,MYO3A,97%
same,remaining binding at 1 µM,AKT3,59%
same,remaining binding at 1 µM,[1],84%
same,remaining binding at 1 µM,SBK1,100%
same,remaining binding at 1 µM,DAPK3,98%
same,remaining binding at 1 µM,DYRK1A,100%
same,remaining binding at 1 µM,RAF1,97%
same,remaining binding at 1 µM,WNK3,100%
same,remaining binding at 1 µM,JNK3,86%
same,remaining binding at 1 µM,ICK,90%
same,remaining binding at 1 µM,TNIK,11%
same,remaining binding at 1 µM,EGFR(L861Q),0.9%
same,remaining binding at 1 µM,p38-delta,83%
same,remaining binding at 1 µM,MAP4K5,54%
same,remaining binding at 1 µM,RIOK2,100%
same,remaining binding at 1 µM,CDKL2,100%
same,remaining binding at 1 µM,MAPKAPK2,89%
same,remaining binding at 1 µM,GSK3A,100%
same,remaining binding at 1 µM,TNK1,64%
same,remaining binding at 1 µM,ERK5,100%
same,remaining binding at 1 µM,SGK,100%
same,remaining binding at 1 µM,MINK,29%
same,EC50,[2],50 nM
same,remaining binding at 1 µM,EIF2AK1,100%
same,remaining binding at 1 µM,ROS1,89%
same,remaining binding at 1 µM,PIK3C2G,100%
same,remaining binding at 1 µM,YSK4,67%
same,remaining binding at 1 µM,GRK7,100%
same,remaining binding at 1 µM,KIT(A829P),100%
same,remaining binding at 1 µM,EPHB6,82%
same,remaining binding at 1 µM,PIM2,100%
same,% control,"EGFR(L747-T751del,Sins)",21%
same,remaining binding at 1 µM,CSF1R-autoinhibited,100%
same,remaining binding at 1 µM,ERK1,91%
same,remaining binding at 1 µM,SIK2,93%
same,remaining binding at 1 µM,ACVR2A,89%
same,remaining binding at 1 µM,MARK4,100%
same,remaining binding at 1 µM,NDR1,71%
